Measured values from publication PMC9583092 (ACS Omega, 2022).
Where “and” joins values, the source holds several entries; their conditions need not be identical. Equal values may be shown once. Read-outs that look alike come from different tables or passages of the source. Non-standard residues stand in square brackets, D forms with d. Residues, ends and D or L forms follow the SMILES beside them. *: point of attachment. Gly(N(CH2)2(3-indolyl)) = O=C(O)CNCCc1c[nH]c2ccccc12; Gly(Nα-4-Cl-benzyl) = O=C(O)CNCc1ccc(Cl)cc1; N(4-Br-benzyl)Gly = O=C(O)CNCc1ccc(Br)cc1; N(tridecyl)Gly = CCCCCCCCCCCCCNCC(=O)O; N(4-F-Bzl)Gly = O=C(O)CNCc1ccc(F)cc1; NBzl(4-I)Gly = O=C(O)CNCc1ccc(I)cc1; Gly(N-2-aminoethyl) = NCCNCC(=O)O; NFurfurylGly = O=C(O)CNCc1ccco1; X1 = CCCCCCCCN(CCCCCCCC)CC(=O)*; Gly(N-cHex) = O=C(O)CNC1CCCCC1; X2 = CCCCCCN(CCCCCC)CC(=O)*; Nphe = O=C(O)CNCc1ccccc1; Nlys = NCCCCNCC(=O)O

Key:
C. neoformans [1] = assay: MIC determination, broth microdilution; type: cell-based, Cryptococcus neoformans; settings: RPMI-MOPS, 72 h at 35 °C, no visual growth, twofold dilutions 200–1.56 μg/mL, biological triplicate
C. neoformans [2] = settings: RMG8-8 parameters from previously published results; cited from earlier work
[3] = test system: HepG2 hepatocellular carcinoma cells; settings: human liver cells; RMG8-8 parameters from previously published results; cited from earlier work
[4] = calculated distribution coefficient at pH 7.4; RMG8-8 parameters from previously published results; cited from earlier work
C. albicans = settings: cited from earlier work
fungi = settings: killed fungi rapidly; cited from earlier work
[5] = result in words; cited from earlier work

Structure (SMILES) | C. neoformans MIC (C. neoformans [1]) | further results
CCCCCCCCCCCCCNCC(=O)N(CC(=O)N(CCCCN)CC(=O)N(CCN)CC(=O)N(CC(N)=O)Cc1ccccc1)Cc1ccccc1 [Compound 15] (H-[N(tridecyl)Gly][Nphe][Nlys][Gly(N-2-aminoethyl)][Nphe]-NH2) | 1.56 to 3.13 µg/mL | –
CCCCCCCCCCCCCNCC(=O)N(CC(=O)N(CCCCN)CC(=O)N(CCN)CC(=O)N(CC(N)=O)Cc1ccc(F)cc1)Cc1ccc(F)cc1 [Compound 17] (H-[N(tridecyl)Gly][N(4-F-Bzl)Gly][Nlys][Gly(N-2-aminoethyl)][N(4-F-Bzl)Gly]-NH2) | 1.56 to 3.13 µg/mL | –
CCCCCCCCCCCCCNCC(=O)N(CC(=O)N(CCCCN)CC(=O)N(CCN)CC(=O)N(CC(N)=O)Cc1ccc(Cl)cc1)Cc1ccc(Cl)cc1 [Compound 18] (H-[N(tridecyl)Gly][Gly(Nα-4-Cl-benzyl)][Nlys][Gly(N-2-aminoethyl)][Gly(Nα-4-Cl-benzyl)]-NH2) | 3.13 µg/mL | –
CCCCCCCCCCCCCNCC(=O)N(CC(=O)N(CCCCN)CC(=O)N(CCN)CC(=O)N(CC(N)=O)Cc1ccc(Br)cc1)Cc1ccc(Br)cc1 [Compound 19] (H-[N(tridecyl)Gly][N(4-Br-benzyl)Gly][Nlys][Gly(N-2-aminoethyl)][N(4-Br-benzyl)Gly]-NH2) | 3.13 µg/mL | –
CCCCCCCCCCCCCNCC(=O)N(CC(=O)N(CCCCN)CC(=O)N(CCN)CC(=O)N(CC(N)=O)Cc1ccc(I)cc1)Cc1ccc(I)cc1 [Compound 20] (H-[N(tridecyl)Gly][NBzl(4-I)Gly][Nlys][Gly(N-2-aminoethyl)][NBzl(4-I)Gly]-NH2) | 6.25 µg/mL | –
CCCCCCCCCCCCCNCC(=O)N(CCc1c[nH]c2ccccc12)CC(=O)N(CCCCN)CC(=O)N(CCN)CC(=O)N(CCc1c[nH]c2ccccc12)CC(N)=O [Compound 23] (H-[N(tridecyl)Gly][Gly(N(CH2)2(3-indolyl))][Nlys][Gly(N-2-aminoethyl)][Gly(N(CH2)2(3-indolyl))]-NH2) | 1.56 to 3.13 µg/mL | –
CCCCCCCCCCCCCNCC(=O)N(CC(=O)N(CCCCN)CC(=O)N(CCN)CC(=O)N(CC(N)=O)Cc1ccco1)Cc1ccco1 [Compound 24] (H-[N(tridecyl)Gly][NFurfurylGly][Nlys][Gly(N-2-aminoethyl)][NFurfurylGly]-NH2) | 3.13 to 6.25 µg/mL | –
CCCCCCCCCCCCCNCC(=O)N(CC(=O)N(CCCCN)CC(=O)N(CCN)CC(=O)N(CC(N)=O)C1CCCCC1)C1CCCCC1 [RMG8-8] (H-[N(tridecyl)Gly][Gly(N-cHex)][Nlys][Gly(N-2-aminoethyl)][Gly(N-cHex)]-NH2) | – | C. neoformans MIC (C. neoformans [2]): 1.56 µg/mL; HepG2 TD50 [3]: 189 µg/mL and 189 ± 43 µg/mL; cLogD7.4 [4]: –2.38; C. albicans MIC (C. albicans): 25 µg/mL; t1/2 of fungal killing (fungi): 6.5 min; proteolytic stability [5]: proteolytically stable

The next lines start with results.

C. neoformans MIC (C. neoformans [1]) | Structure (SMILES) | further results
12.5 µg/mL | CCCCCCCCCCCCCNCC(=O)N(CC(=O)N(CCCC[N+](C)(C)C)CC(=O)N(CC[N+](C)(C)C)CC(=O)N(CC(N)=O)C1CCCCC1)C1CCCCC1 [Compound 1] | –
3.13 µg/mL | CCCCCCCCCCCCCNCC(=O)N(CC(=O)N(CCCCN)CC(=O)N(CCCCN)CC(=O)N(CC(N)=O)C1CCCCC1)C1CCCCC1 [Compound 2] (H-[N(tridecyl)Gly][Gly(N-cHex)][Nlys][Nlys][Gly(N-cHex)]-NH2) | –
100 µg/mL | CCCCCCN(CCCCCC)CC(=O)N(CC(=O)N(CCCCN)CC(=O)N(CCN)CC(=O)N(CC(N)=O)C1CCCCC1)C1CCCCC1 [Compound 6] (X2-[Gly(N-cHex)][Nlys][Gly(N-2-aminoethyl)][Gly(N-cHex)]-NH2) | –
6.25 µg/mL | CCCCCCCCN(CCCCCCCC)CC(=O)N(CC(=O)N(CCCCN)CC(=O)N(CCN)CC(=O)N(CC(N)=O)C1CCCCC1)C1CCCCC1 [Compound 7] (X1-[Gly(N-cHex)][Nlys][Gly(N-2-aminoethyl)][Gly(N-cHex)]-NH2) | –
